{"source": "patent US9913861B2", "about": "(priority 2013, dated 2018)", "key": {"[1]": {"tested_on": "Human coxsackievirus type 9 (CA9)", "assay_type": "cell-based"}, "[2]": {"tested_on": "Human rhinovirus type 14 (HRV14, major group)", "assay_type": "cell-based"}, "[3]": {"tested_on": "Human respiratory syncytial virus, Long strain (RSV)", "assay_type": "cell-based"}, "[4]": {"tested_on": "Human herpesvirus type 1 (HSV1)", "assay_type": "cell-based"}, "[5]": {"tested_on": "herpesviruses and influenza viruses", "settings": "cited from earlier work"}, "[6]": {"settings": "in vivo; cited from earlier work"}, "[7]": {"tested_on": "BGM, HEp-2 and HeLa cells"}}, "note": "Structures can show the parent of a compound that is named as a salt.", "data": [{"compound": "CN1[C@@H]2CC[C@H]1CC(OC(=O)C(CO)c1ccccc1)C2.CN1[C@@H]2CC[C@H]1CC(OC(=O)C(CO)c1ccccc1)C2.O=S(=O)(O)O", "note": "(stereo partly shown) [Atropine sulphate, atropine sulphate]", "values": [{"measurement": "percentage plaque inhibition", "setting": "[1]", "value": "7.63/12.85%"}, {"measurement": "percentage plaque inhibition", "setting": "[2]", "value": "11.30/14.12%"}, {"measurement": "percentage plaque inhibition", "setting": "[3]", "value": "7.74/12.36%"}, {"measurement": "percentage plaque inhibition", "setting": "[4]", "value": "19.52/41.90%"}, {"measurement": "plaque inhibition of the individual substances", "setting": "[4]", "value": "approximately 35%"}]}, {"compound": "Cc1cc(C(C)(C)C)c(O)c(C)c1CC1=NCCN1", "note": "[OMZ, Oxymetazoline hydrochloride]", "values": [{"measurement": "reduction in infectivity", "setting": "[2]", "value": "50-60%"}]}, {"compound": "Nc1nc2c(ncn2COCCO)c(=O)[nH]1", "note": "[aciclovir, Aciclovir]", "values": [{"measurement": "reduction in infectivity", "setting": "[4]", "value": "50-60%"}]}, {"compound": "CN1[C@@H]2CC[C@H]1C[C@@H](OC(=O)C(CO)c1ccccc1)C2", "note": "(stereo partly shown) [atropine]", "values": [{"measurement": "concentration at which the maximum antiviral effect is achieved", "setting": "[5]", "value": 2, "unit": "mM"}]}, {"compound": "NC(=O)c1ncn([C@@H]2O[C@H](CO)[C@@H](O)[C@H]2O)n1", "note": "[ribavirin, Ribavirin]", "values": [{"measurement": "reduction in infectivity", "setting": "[3]", "value": "50-60%"}]}, {"compound": "aconitine", "values": [{"measurement": "percentage plaque inhibition", "setting": "[1]", "value": "8.40/10.69%"}, {"measurement": "percentage plaque inhibition", "setting": "[2]", "value": "−1.14/2.84%"}, {"measurement": "lethal dose", "setting": "[6]", "value": "approximately 5 mg"}, {"measurement": "percentage plaque inhibition", "setting": "[3]", "value": "9.01/16.56%"}, {"measurement": "non-cell-toxic concentration (start of dilution series)", "setting": "[7]", "value": 50, "unit": "µg/mL"}, {"measurement": "percentage plaque inhibition", "setting": "[4]", "value": "3.17/11.22%"}, {"measurement": "plaque inhibition of the individual substances", "setting": "[4]", "value": "approximately 8%"}]}]}
